The record followed here is article PMC8536644, “Enigmatic mechanism of the N-vinylpyrrolidone hepatocarcinogenicity in the rat” (Archives of Toxicology, 2021).

Series [1] has as its system polychromatic erythrocytes of rat bone marrow. Kind of series: Micronucleus test in rat bone marrow (OECD 474). Conditions: for MN/ 1000 PCE Mean ± SD / MN/ 1000 PCE Range / PCE/1000 Erythrozyten Mean ± SD / PCE/NCE quotient (%): 200 mg/kg body weight oral. The method, then: 13-mm filter disks with a pore size of 8 µm were placed on the bottom of 5-mL plastic syringes. Approximately 500 mg of a mixture consisting of equal parts microcrystalline cellulose (Sigmacell®, Typ 50) and alpha-cellulose fibers was added up to the 2-mL mark.
Bone marrow preparation was performed according to published methods (Romagna and Staniforth [1989]; Salamone et al. [1980]). The soft tissue was removed from the femora and the epiphyses were cut off. The bone marrow was rinsed off the diaphyses with approximately 3 mL 37 °C-warm fetal calf serum (FCS) (Biochrom, Berlin, Germany) per femur, placed on the above-described cellulose column and eluted with 3 mL of Hank's Balanced Salt Solution (HBSS) (Biochrom, Berlin, Germany) (with Ca^2+ und Mg^2+). The eluate was centrifuged at 300 g for 5 min and the pellet was suspended in […] FCS. From this suspension three portions per femur were individually placed on slides, air-dried and then stained for 4 min in May-Grunwald solution 1 (Merck, Darmstadt, Germany), followed by 4 min in May–Grunwald solution 2 (May-Grunwald solution 1 diluted 1:1 with aqua bidest.), rinsed in aqua bidest and then stained with Giemsa solution (7.5% dilution derived from Giemsa obtained from Merck, Darmstadt, Germany) for 15 min. Subsequently, the slides were washed twice with aqua bidest, then dried, cleared in xylene and covered with Corbit-Balsam (I. Hecht, Kiel-Hasse, Germany).
2000 polychromatic erythrocytes (PCE) per animal (1000 per slide) were evaluated at 1000-fold magnification under immersion oil for the presence/absence of large and small micronuclei as well as the proportion of PCE among the total erythrocytes. Statistical significance of differences between treated versus untreated groups was evaluated by the one-sided Wilcoxon test (using the program MUKERN). The result is regarded as positive when the following criteria are fulfilled: 1.
2000 PCEs were analyzed for micronuclei per animal.

The nature of series [2]: Trypan Blue viability of the single cell suspension, liver. The class given is in vivo, rat. Conditions: Wistar, rat, in vivo, po, 200 mg/kg.
Description: (§1) The organ parts (see above) were washed in mincing buffer (50 mM EDTA in HBSS [without Ca^2+ and Mg^2+] pH 7.5: DMSO 9:1 (v/v), the latter added shortly before use, stored at 4 °C), cut into 1 to 2-mm pieces in ice-cold mincing buffer and transferred to a cell sieve with 70-µm pores. The viability of the cell suspension was evaluated by the Trypan Blue Assay (Strober [2001]).
Series [3] concerns rat liver cells. Described as above. Format: in vivo. Conditions: Wistar, rat, in vivo, po, 200 mg/kg, 24 h.
Description: as §1

The viability is the share of living cells, or the viability signal relative to a control. Higher therefore signals better survival. As to `CCOS(C)(=O)=O` [EMS, ethyl methanesulfonate, reference compound], the “MN/ 1000 PCE Mean ± SD” value in series [1] (female) worked out at 11.8 ± 12.3 MN/ 1000 PCE; in series [1] (male), 14.5 ± 6.0 MN/ 1000 PCE. Also, the “MN/ 1000 PCE Range” value is 9.0–14.5 MN/ 1000 PCE in series [1] (female) and 3.0–20.0 MN/ 1000 PCE in series [1] (male). The “PCE/1000 Erythrozyten Mean ± SD” value in series [1] (female) turned out to be 563 ± 29 PCE/1000 Erythrozyten; in series [1] (male) it was 616 ± 50 PCE/1000 Erythrozyten. Also, the “PCE/NCE quotient (%)” value in series [1] (female) amounted to 89%; in series [1] (male), 101%. Moreover, the “Micronuclei in PCE” value in series [1] (200 mg/kg body weight, independent of gender) was 13.2 ± 4.6 ‰; in series [1] (female, Wistar Crl:WI (Han), rat, in vivo, 24 h), 11.8 ± 2.3 ‰; in series [1] (male, Wistar Crl:WI (Han), rat, in vivo, 24 h), 14.5 ± 6.0 ‰. Also, the viability at 24 h stood at 99% in series [2] (female, Individual viability (%)); 96 ± 2% in series [2] (female, Viability (%) (mean ± SD)); 91% in series [2] (male, Individual viability (%)); 95 ± 3% in series [2] (male, Viability (%) (mean ± SD)). Further, the “Individual viability (%)” value in series [3] (female) was determined as 97%; in series [3] (male), 94%.
